Experiments:
lipoamide = compound: NC(=O)CCCCC1CCSS1 [lipoamide]; experiment: thermal stability z-score vs DMSO; higher = more thermally stabilized by treatment; details: HeLa, lipoamide concentration 100 µM
Method: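 Cellular thermal proteome profiling in HeLa cells. Cells were treated with 100 µM lipoamide for 1 h, with or without 1 mM arsenate for a further 1 h, then heated to ten temperatures (37-66.3 °C), and soluble protein was quantified by TMT mass spectrometry relative to 0.1% DMSO controls. The thermal stability score (sum of log2 fold changes minus the abundance score) was transformed to a z-score; mean of n = 3 experiments.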

potassium arsenate = compound: O=[As]([O-])(O)O.[K+] [potassium arsenate]; experiment: as above; details: HeLa; arsenate concentration 1 mM
Method: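 Cellular thermal proteome profiling in HeLa cells treated with 1 mM arsenate for 1 h (DMSO pretreatment), heated to ten temperatures (37-66.3 °C). Soluble protein was quantified by TMT mass spectrometry relative to DMSO controls; the thermal stability score was transformed to a z-score; mean of n = 3 experiments.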

[1] = arsenate co-treatment: 1 mM arsenate 1 h
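Further: each temperature applied for 3 min, abundance score taken as mean log2 fold change at the two lowest temperatures, z-score obtained by mean subtraction and division by SD.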

Sequence of UniProt O95379 (O95379 whole entry): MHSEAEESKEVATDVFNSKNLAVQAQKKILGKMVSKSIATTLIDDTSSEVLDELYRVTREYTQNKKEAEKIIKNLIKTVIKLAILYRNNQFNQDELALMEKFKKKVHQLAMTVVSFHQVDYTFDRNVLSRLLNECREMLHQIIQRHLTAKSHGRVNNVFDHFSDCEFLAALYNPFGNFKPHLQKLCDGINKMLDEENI
Sequence of UniProt Q13443 (Q13443 whole entry): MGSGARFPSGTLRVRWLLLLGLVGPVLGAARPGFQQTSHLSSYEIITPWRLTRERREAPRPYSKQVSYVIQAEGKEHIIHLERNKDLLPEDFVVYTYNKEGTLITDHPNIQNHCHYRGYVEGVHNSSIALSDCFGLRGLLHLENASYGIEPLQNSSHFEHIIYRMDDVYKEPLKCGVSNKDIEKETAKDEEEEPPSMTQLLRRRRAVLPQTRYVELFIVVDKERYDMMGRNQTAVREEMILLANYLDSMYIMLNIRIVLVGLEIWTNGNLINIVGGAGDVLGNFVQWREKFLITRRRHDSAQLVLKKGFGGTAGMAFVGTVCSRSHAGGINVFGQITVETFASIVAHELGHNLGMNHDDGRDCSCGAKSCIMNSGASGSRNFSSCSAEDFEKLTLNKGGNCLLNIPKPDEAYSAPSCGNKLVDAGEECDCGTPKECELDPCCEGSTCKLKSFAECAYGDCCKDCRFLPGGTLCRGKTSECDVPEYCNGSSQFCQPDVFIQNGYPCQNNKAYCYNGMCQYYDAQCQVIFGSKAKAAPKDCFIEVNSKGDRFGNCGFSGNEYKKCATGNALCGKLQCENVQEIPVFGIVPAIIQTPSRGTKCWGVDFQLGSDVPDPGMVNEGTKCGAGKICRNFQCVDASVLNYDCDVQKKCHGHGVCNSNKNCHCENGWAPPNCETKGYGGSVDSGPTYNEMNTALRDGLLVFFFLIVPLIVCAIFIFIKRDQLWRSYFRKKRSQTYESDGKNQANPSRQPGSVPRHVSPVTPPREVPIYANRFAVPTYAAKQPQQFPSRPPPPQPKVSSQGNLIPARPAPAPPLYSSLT
Sequence of UniProt Q4KMP7 (Q4KMP7 whole entry): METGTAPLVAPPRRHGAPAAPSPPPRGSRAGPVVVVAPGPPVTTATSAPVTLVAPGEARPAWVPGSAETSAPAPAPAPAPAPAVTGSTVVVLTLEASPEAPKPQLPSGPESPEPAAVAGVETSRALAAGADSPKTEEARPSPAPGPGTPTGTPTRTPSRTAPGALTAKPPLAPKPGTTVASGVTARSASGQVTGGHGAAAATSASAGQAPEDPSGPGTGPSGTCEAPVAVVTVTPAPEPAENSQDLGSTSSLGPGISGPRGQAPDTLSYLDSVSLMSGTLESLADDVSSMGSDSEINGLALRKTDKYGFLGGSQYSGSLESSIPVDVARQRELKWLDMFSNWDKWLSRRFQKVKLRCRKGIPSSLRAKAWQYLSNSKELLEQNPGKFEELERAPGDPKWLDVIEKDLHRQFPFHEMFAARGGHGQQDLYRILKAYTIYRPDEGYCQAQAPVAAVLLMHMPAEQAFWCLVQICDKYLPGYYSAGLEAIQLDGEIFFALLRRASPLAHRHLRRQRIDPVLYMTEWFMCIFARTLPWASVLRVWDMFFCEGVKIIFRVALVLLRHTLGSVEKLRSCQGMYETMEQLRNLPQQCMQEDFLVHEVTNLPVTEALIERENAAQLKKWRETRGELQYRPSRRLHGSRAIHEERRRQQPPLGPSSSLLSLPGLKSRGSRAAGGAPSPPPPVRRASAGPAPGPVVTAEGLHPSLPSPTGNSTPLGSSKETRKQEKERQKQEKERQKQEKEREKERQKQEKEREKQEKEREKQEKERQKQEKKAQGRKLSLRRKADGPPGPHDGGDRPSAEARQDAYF
Sequence of UniProt P28702 (P28702 whole entry): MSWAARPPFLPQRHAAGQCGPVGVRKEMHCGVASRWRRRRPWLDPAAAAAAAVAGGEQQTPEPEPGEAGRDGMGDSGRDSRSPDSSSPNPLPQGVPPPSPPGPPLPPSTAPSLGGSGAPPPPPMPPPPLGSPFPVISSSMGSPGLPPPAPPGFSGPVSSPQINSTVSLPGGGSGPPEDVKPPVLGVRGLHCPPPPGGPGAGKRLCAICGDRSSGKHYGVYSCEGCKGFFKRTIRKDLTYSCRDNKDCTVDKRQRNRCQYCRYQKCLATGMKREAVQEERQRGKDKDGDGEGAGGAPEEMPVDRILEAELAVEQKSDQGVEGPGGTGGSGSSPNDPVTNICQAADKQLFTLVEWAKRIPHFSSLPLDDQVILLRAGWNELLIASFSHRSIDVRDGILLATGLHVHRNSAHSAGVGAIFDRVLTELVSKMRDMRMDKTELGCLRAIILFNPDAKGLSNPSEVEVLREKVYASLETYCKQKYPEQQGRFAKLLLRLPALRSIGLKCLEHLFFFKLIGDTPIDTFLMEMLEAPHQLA
Sequence of UniProt O43678 (O43678 whole entry): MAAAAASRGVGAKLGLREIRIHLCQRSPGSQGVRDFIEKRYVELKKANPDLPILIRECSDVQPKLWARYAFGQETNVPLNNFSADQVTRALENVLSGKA
Sequence of UniProt Q14135 (Q14135 whole entry): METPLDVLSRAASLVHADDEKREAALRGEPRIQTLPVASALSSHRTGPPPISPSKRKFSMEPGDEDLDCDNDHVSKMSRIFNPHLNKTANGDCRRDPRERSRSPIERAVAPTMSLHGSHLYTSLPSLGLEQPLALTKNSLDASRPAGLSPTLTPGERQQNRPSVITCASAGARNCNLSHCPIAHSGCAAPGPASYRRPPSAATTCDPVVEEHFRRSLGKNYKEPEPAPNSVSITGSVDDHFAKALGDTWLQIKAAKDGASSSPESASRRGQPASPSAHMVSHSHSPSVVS
Sequence of UniProt Q5T5C0 (Q5T5C0 whole entry): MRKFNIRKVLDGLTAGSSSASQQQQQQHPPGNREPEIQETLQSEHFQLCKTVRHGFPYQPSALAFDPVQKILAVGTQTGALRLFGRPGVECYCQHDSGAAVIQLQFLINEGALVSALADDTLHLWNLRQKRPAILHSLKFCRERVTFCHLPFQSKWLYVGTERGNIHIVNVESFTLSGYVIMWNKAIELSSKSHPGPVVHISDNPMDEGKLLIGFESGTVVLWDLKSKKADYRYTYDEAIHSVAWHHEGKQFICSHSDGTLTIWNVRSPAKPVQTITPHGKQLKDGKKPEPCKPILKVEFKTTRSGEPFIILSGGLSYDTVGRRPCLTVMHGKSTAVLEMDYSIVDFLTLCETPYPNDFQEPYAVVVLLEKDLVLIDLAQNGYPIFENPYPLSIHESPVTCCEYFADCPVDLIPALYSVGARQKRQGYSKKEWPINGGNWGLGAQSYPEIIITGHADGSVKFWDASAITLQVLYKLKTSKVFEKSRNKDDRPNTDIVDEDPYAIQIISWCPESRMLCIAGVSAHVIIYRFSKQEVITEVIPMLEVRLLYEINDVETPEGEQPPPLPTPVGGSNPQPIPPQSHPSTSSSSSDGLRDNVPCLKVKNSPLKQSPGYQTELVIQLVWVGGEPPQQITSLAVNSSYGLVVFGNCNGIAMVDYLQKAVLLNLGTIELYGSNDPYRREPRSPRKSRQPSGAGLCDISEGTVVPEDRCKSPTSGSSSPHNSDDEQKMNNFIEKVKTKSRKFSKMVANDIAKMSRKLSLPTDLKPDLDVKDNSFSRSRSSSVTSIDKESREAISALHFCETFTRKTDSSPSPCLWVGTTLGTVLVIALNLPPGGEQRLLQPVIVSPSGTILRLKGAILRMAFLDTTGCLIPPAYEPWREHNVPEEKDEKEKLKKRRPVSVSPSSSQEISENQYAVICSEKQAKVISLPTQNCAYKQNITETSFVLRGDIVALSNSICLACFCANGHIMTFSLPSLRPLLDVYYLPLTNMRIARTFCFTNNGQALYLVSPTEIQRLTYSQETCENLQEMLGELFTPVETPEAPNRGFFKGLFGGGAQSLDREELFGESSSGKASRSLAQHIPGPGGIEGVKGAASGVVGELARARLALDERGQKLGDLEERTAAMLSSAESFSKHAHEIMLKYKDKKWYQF
Sequence of UniProt P48507 (P48507 whole entry): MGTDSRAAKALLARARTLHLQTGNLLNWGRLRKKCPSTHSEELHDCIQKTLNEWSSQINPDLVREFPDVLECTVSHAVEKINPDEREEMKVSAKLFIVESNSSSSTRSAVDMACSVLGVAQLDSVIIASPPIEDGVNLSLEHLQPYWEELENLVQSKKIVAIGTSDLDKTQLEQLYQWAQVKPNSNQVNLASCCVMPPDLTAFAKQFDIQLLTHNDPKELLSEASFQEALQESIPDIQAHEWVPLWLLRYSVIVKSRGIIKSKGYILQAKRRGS
Sequence of UniProt P61224 (P61224 whole entry): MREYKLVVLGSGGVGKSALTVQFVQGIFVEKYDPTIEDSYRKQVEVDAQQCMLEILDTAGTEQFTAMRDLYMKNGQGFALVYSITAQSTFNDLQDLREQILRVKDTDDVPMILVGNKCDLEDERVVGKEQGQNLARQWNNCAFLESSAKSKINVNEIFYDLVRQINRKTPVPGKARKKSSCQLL
Sequence of UniProt P52566 (P52566 whole entry): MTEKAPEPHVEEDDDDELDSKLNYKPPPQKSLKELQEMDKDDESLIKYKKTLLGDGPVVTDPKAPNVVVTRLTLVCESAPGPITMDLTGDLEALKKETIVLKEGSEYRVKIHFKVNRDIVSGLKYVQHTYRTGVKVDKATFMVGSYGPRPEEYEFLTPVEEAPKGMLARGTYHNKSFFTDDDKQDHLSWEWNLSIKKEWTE
Sequence of UniProt Q9BUL8 (Q9BUL8 whole entry): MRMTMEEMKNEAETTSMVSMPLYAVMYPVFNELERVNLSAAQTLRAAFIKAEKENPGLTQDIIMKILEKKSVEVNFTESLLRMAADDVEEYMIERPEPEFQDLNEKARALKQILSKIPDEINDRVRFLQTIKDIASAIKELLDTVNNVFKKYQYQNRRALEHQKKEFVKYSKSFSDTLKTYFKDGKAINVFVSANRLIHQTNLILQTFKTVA
Sequence of UniProt P60981 (P60981 whole entry): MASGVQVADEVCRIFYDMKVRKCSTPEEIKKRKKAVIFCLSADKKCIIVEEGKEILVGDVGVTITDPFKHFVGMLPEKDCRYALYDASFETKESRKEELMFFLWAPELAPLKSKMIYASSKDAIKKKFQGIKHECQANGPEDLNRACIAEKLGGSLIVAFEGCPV

Target	thermal stability z-score (lipoamide; [1])	thermal stability z-score (lipoamide; arsenate co-treatment: none)	thermal stability z-score (potassium arsenate)
SERPINB4 (UniProt P48594)	0.303	0.197	-0.0226
CCNDBP1 (UniProt O95273)	0.104	-0.0265	0.133
RPS29 (UniProt P62273)	1.14	1.17	-0.415
RFC5 (UniProt P40937)	-0.341	-0.0735	0.971
YME1L1 (UniProt Q96TA2)	-0.813	-0.425	-0.298
GADD45GIP1 (UniProt Q8TAE8)	0.954	0.379	0.432
TBC1D10B (UniProt Q4KMP7)	-0.825	-0.121	-0.503
SAAL1 (UniProt Q96ER3)	0.357	-0.345	0.336
LAMA5 (UniProt O15230)	-1.26	-0.93	0.045
DMAP1 (UniProt Q9NPF5)	-0.551	-0.38	-0.644
EXOSC3 (UniProt Q9NQT5)	0.273	-0.000548	-0.385
PACSIN2 (UniProt Q9UNF0)	0.246	0.134	0.638
SP3 (UniProt Q02447)	-0.177	-0.427	-0.584
INTS3 (UniProt Q68E01)	-0.121	-0.0169	0.26
ARCN1 (UniProt P48444)	0.128	-0.0303	0.383
ARHGDIB (UniProt P52566)	0.0327	-0.0579	0.0843
HSCB (UniProt Q8IWL3)	0.0143	0.667	0.175
PTMA (UniProt P06454)	1.3	1.23	0.425
TRAPPC13 (UniProt A5PLN9)	0.252	-0.0347	-0.371
TNFAIP8 (UniProt O95379)	0.127	-0.421	0.147
BCAR1 (UniProt P56945)	-0.559	-0.583	-0.154
GCLM (UniProt P48507)	1.62	0.394	2.05
HMBS (UniProt P08397)	0.513	0.573	0.0804
BCL7B (UniProt Q9BQE9)	3.46	2.78	0.537

Target	thermal stability z-score (lipoamide; [1])	thermal stability z-score (lipoamide; arsenate co-treatment: none)	thermal stability z-score (potassium arsenate)
VGLL4 (UniProt Q14135)	-0.0828	0.229	-1.46
RBM8A (UniProt Q9Y5S9)	-0.156	0.28	0.0981
NCSTN (UniProt Q92542)	-0.537	-0.624	-0.207
SLMAP (UniProt Q14BN4)	-0.467	-0.173	1.45
ADCK3 (UniProt Q8NI60)	-0.0263	0.19	0.0575
ATP2C1 (UniProt P98194)	-1.04	-0.728	-1.37
NFX1 (UniProt Q12986)	-1.53	-1.5	-3.38
RAP1B (UniProt P61224)	0.74	0.45	0.17
GLT8D2 (UniProt Q9H1C3)	-1.22	-0.83	-0.0179
CUL3 (UniProt Q13618)	-0.1	-0.422	0.158
PRRC2B (UniProt Q5JSZ5)	-0.32	-0.119	-0.412
SLC44A1 (UniProt Q8WWI5)	0.347	-0.0965	-0.452
ISCA1 (UniProt Q9BUE6)	-0.00815	0.577	0.178
STX3 (UniProt Q13277)	0.221	-0.315	-0.39
SMTN (UniProt P53814)	0.0165	0.00756	-0.4
SLC25A13 (UniProt Q9UJS0)	-0.445	-0.77	-0.312
SNRNP70 (UniProt P08621)	-0.195	-0.247	-0.58
POP4 (UniProt O95707)	0.462	0.069	-0.193
PTP4A1 (UniProt Q93096)	1.33	1.25	0.626
MORF4L2 (UniProt Q15014)	-0.451	-0.148	-0.58
WIPI2 (UniProt Q9Y4P8)	0.0343	0.463	-0.0998
A0A0C4DFX4|SRCAP	0.121	-0.226	-0.111
RXRB (UniProt P28702)	0.117	0.096	-0.458
ARPC4 (UniProt P59998)	1.12	0.913	0.369

Target	thermal stability z-score (lipoamide; [1])	thermal stability z-score (lipoamide; arsenate co-treatment: none)	thermal stability z-score (potassium arsenate)
FANCD2 (UniProt Q9BXW9)	-0.812	-0.0726	-0.953
CALM1 (UniProt P0DP23)	3.06	1.53	1.29
STXBP5 (UniProt Q5T5C0)	0.208	0.496	1.77
POLR3A (UniProt O14802)	0.0126	-0.887	-1.69
PDCD10 (UniProt Q9BUL8)	0.00718	-0.0724	0.151
NBEAL2 (UniProt Q6ZNJ1)	-0.0914	0.0428	0.0522
NDUFA2 (UniProt O43678)	-0.29	-0.00199	0.396
ULK3 (UniProt Q6PHR2)	-0.27	-0.197	-0.285
DSTN (UniProt P60981)	0.471	0.0123	-1.22
EFTUD2 (UniProt Q15029)	0.0587	-0.0524	-0.28
PDCD6IP (UniProt Q8WUM4)	1.3	1.06	2.4
IFI30 (UniProt P13284)	1.71	0.524	-0.049
INPP1 (UniProt P49441)	-1.52	-1.35	-1.9
WDR19 (UniProt Q8NEZ3)	-0.121	0.369	0.81
BZW1 (UniProt Q7L1Q6)	0.452	0.578	0.483
NSUN5 (UniProt Q96P11)	0.469	-0.155	0.136
MCM2 (UniProt P49736)	-0.75	-0.391	-0.389
MMP15 (UniProt P51511)	-0.901	-0.632	-0.00399
AASDHPPT (UniProt Q9NRN7)	0.269	0.269	-0.589
STX7 (UniProt O15400)	-0.0553	0.417	0.507
ADAM9 (UniProt Q13443)	-0.535	-0.428	0.397
HIP1R (UniProt O75146)	0.15	0.28	-0.232
PABPC1 (UniProt P11940)	0.469	0.549	-0.758

From the supplement of paper PMC12463676, “Small-molecule dissolution of stress granules by redox modulation benefits ALS models” (Nature Chemical Biology, 2025)
